Data: ChEMBL document CHEMBL3399966, “Isosteric replacements of the carboxylic acid of drug candidate VX-787: Effect of charge on antiviral potency and kinase activity of azaindole-based influenza PB2 inhibitors” (Bioorg Med Chem Lett, 2015)

Key:
[1] = biological target: Serine/threonine-protein kinase PLK1 (Homo sapiens, UniProt P53350); assay: Inhibition of PLK (unknown origin)
[2] = biological target: Phosphatidylinositol 4,5-bisphosphate 3-kinase catalytic subunit beta isoform (Homo sapiens, UniProt P42338); assay: Inhibition of PI3Kbeta (unknown origin)
Phosphatidylinositol 4,5-bisphosphate 3-kinase catalytic subunit beta isoform, sequence (P42338 whole entry, canonical isoform): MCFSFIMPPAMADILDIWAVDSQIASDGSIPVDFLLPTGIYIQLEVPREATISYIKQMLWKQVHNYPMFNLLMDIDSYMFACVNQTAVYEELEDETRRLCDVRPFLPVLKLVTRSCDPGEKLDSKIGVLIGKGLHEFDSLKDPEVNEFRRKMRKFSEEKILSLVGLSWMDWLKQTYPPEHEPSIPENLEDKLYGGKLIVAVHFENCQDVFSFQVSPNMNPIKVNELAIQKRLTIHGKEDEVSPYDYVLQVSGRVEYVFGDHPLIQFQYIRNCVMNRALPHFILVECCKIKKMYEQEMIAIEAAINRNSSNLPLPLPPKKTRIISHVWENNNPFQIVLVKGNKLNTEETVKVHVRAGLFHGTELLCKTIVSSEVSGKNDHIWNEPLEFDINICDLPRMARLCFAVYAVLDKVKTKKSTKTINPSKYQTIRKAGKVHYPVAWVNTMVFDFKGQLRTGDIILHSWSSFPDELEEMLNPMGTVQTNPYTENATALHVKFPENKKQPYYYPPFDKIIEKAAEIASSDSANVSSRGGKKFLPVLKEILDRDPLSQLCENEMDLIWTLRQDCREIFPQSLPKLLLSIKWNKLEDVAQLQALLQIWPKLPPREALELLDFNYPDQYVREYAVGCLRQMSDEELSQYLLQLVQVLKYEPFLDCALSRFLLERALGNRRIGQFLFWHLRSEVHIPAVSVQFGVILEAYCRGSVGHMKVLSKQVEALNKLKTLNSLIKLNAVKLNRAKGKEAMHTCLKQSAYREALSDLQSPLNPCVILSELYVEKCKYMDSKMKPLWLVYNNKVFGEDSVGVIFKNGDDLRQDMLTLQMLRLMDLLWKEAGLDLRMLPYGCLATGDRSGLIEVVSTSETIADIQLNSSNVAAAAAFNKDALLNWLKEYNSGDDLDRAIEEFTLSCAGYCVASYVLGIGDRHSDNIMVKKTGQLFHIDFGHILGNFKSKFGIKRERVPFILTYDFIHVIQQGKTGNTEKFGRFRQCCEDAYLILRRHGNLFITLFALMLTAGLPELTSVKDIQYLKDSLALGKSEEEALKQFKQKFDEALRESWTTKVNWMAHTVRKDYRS

[3] = biological target: Mitogen-activated protein kinase 10 (Homo sapiens, UniProt P53779); assay: Inhibition of JNK3 (unknown origin)
Mitogen-activated protein kinase 10, sequence (P53779 whole entry): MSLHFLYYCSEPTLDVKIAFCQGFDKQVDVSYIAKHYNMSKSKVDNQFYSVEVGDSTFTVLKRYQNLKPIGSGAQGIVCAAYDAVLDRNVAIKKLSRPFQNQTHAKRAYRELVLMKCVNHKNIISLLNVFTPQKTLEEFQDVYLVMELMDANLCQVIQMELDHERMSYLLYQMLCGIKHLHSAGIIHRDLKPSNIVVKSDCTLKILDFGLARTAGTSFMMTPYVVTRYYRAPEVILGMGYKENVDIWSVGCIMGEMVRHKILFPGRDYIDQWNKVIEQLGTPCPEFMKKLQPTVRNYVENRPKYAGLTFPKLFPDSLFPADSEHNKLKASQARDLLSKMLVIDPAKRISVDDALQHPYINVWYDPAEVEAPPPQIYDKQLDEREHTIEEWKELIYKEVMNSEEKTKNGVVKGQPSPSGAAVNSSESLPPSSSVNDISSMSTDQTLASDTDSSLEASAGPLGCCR

[4] = biological target: cAMP-dependent protein kinase catalytic subunit alpha (Homo sapiens, UniProt P17612); assay: Inhibition of PKAa (unknown origin)
[5] = biological target: Tyrosine-protein kinase JAK2 (Homo sapiens, UniProt O60674); assay: Inhibition of JAK2 (unknown origin)
Tyrosine-protein kinase JAK2, sequence (O60674 whole entry): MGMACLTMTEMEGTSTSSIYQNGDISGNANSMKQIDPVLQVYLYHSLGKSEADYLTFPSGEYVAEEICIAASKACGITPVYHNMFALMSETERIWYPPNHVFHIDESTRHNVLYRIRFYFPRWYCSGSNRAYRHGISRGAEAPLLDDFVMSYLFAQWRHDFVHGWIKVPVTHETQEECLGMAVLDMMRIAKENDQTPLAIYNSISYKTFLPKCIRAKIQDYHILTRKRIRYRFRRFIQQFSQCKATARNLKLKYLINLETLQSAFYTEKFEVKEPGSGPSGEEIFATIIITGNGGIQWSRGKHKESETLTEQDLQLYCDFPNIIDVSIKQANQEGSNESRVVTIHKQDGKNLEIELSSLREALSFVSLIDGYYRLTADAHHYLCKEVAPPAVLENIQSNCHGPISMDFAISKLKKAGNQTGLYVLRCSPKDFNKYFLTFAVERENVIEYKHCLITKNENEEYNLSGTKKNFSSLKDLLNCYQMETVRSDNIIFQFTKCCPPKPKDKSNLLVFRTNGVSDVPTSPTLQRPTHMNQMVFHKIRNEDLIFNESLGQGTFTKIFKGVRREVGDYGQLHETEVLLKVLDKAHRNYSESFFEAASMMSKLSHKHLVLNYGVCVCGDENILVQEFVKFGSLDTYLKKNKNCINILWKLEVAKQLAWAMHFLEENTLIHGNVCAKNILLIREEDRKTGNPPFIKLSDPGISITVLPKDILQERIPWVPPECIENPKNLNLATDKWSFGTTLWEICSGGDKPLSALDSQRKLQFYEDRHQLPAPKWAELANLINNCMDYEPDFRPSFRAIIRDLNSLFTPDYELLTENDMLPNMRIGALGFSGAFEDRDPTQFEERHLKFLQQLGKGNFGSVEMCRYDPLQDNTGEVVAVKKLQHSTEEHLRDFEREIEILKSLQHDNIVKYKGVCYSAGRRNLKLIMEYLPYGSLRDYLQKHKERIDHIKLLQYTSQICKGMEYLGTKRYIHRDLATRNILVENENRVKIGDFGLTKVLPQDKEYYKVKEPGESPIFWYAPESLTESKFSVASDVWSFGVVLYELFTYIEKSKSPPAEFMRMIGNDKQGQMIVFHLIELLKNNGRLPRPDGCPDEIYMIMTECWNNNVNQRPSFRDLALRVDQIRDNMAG

[6] = biological target: T1, Receptor-type tyrosine-protein kinase FLT3 (Homo sapiens, UniProt P36888); assay: Inhibition of FLT3 (unknown origin)
T1 sequence (P36888 whole entry): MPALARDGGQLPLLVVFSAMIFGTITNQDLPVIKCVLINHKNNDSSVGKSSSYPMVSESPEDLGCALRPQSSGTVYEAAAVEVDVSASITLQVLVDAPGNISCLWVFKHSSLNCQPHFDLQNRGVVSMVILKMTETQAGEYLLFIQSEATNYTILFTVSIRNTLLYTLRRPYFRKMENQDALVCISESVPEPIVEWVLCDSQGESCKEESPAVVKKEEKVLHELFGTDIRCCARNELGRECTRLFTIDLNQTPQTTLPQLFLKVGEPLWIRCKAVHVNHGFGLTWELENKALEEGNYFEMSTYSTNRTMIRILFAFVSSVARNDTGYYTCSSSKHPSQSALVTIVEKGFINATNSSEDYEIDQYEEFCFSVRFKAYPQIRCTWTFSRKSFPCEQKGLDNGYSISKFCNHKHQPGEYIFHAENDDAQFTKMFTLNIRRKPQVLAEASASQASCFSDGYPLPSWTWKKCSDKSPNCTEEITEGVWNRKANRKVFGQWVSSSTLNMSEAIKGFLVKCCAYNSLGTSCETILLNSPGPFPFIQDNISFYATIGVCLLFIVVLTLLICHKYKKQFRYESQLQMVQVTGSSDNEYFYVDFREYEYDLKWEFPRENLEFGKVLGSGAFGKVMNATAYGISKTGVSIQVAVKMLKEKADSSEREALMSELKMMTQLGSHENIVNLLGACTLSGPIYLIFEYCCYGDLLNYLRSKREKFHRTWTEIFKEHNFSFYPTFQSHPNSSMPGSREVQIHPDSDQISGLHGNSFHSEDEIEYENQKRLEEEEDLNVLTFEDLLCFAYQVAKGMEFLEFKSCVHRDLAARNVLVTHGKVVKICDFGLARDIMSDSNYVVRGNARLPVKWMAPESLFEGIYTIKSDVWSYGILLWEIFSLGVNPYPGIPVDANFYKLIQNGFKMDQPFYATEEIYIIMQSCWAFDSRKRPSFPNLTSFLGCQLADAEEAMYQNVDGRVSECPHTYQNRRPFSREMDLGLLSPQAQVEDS

[7] = biological target: Rho-associated protein kinase (Homo sapiens, UniProt O75116+Q13464); assay: Inhibition of ROCK (unknown origin); format: protein-complex assay
[8] = biological target: Hepatocyte growth factor receptor (Homo sapiens, UniProt P08581); assay: Inhibition of MET (unknown origin)
Hepatocyte growth factor receptor, sequence (P08581 whole entry): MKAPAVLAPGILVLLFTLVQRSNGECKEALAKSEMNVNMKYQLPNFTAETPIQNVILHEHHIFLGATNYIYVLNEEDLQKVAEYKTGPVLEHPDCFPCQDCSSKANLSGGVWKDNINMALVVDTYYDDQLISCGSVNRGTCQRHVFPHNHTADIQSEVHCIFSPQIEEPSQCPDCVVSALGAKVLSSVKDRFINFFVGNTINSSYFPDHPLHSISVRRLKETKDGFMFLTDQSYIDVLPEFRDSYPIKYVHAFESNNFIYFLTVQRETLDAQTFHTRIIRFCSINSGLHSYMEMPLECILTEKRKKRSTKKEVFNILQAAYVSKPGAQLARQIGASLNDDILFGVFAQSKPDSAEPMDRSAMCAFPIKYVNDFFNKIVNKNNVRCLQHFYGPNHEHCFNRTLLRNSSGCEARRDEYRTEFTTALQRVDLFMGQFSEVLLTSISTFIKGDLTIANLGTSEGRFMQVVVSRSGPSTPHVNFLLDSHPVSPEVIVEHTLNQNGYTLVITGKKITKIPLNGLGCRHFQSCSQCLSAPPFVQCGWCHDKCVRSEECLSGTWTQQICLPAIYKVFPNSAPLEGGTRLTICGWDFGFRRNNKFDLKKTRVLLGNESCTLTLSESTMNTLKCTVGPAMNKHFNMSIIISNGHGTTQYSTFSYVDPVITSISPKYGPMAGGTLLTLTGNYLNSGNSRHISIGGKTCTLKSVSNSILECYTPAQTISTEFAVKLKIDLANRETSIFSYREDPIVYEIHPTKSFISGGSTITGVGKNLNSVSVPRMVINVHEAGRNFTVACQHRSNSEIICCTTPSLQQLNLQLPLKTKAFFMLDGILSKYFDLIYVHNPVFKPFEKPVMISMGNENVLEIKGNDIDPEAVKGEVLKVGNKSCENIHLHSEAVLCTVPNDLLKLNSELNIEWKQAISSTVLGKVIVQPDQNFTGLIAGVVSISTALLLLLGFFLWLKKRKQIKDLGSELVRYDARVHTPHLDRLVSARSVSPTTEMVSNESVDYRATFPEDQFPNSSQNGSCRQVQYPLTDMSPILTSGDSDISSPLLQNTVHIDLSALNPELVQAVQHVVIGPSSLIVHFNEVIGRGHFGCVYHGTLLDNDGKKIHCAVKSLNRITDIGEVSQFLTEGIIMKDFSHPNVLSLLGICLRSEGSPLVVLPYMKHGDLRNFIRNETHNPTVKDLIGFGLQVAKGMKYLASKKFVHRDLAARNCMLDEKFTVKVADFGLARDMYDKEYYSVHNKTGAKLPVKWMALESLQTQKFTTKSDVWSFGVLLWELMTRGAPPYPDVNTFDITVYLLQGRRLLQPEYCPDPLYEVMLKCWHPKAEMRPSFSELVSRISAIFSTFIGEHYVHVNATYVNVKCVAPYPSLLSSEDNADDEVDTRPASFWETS

[9] = test system: Influenza A virus; assay: Antiviral activity against influenza A virus A/PR/8/34 strain incubated with MDCK cells assessed as reduction of viral RNA level equal to 1% of control level after 72 hrs by branched DNA assay; format: functional, organism-based; settings: A/Puerto Rico/8/1934(H1N1)
[10] = biological target: T2, Interleukin-1 receptor-associated kinase 4 (Homo sapiens, UniProt Q9NWZ3); assay: Inhibition of IRAK4 (unknown origin)
T2 sequence (Q9NWZ3 whole entry): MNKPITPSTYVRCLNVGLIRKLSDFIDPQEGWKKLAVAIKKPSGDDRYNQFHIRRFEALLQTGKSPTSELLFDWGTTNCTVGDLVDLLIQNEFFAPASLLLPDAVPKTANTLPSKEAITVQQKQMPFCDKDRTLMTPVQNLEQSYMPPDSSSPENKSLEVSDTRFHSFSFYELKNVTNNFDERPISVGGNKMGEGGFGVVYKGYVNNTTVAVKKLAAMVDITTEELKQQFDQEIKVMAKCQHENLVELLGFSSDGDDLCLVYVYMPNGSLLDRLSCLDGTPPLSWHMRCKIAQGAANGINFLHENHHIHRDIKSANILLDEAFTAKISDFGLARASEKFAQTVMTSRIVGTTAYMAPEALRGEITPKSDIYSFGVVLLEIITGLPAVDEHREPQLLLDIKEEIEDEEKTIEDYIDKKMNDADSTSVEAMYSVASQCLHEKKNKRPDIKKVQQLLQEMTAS

[11] = biological target: Vascular endothelial growth factor receptor 2 (Homo sapiens, UniProt P35968); assay: Inhibition of KDR (unknown origin)
[12] = biological target: Glycogen synthase kinase-3 (Homo sapiens, UniProt P49840+P49841); assay: Inhibition of GSK3 (unknown origin); format: protein assay
[13] = test system: Influenza A virus; assay: Antiviral activity against Influenza A virus A/PR/8/34 strain incubated with MDCK cells assessed as cell protection after 72 hrs by phenotypic cell protection assay; format: functional, organism-based; settings: A/Puerto Rico/8/1934(H1N1)
[14] = biological target: Phosphatidylinositol 4,5-bisphosphate 3-kinase catalytic subunit alpha isoform (Homo sapiens, UniProt P42336); assay: Inhibition of PI3Kalpha (unknown origin)
[15] = biological target: Phosphatidylinositol 4,5-bisphosphate 3-kinase catalytic subunit gamma isoform (Homo sapiens, UniProt P48736); assay: Inhibition of PI3Kgamma (unknown origin)
[16] = biological target: T3, Phosphatidylinositol 4,5-bisphosphate 3-kinase catalytic subunit delta isoform (Homo sapiens, UniProt O00329); assay: Inhibition of PI3Kdelta (unknown origin)
T3 sequence (O00329 whole entry): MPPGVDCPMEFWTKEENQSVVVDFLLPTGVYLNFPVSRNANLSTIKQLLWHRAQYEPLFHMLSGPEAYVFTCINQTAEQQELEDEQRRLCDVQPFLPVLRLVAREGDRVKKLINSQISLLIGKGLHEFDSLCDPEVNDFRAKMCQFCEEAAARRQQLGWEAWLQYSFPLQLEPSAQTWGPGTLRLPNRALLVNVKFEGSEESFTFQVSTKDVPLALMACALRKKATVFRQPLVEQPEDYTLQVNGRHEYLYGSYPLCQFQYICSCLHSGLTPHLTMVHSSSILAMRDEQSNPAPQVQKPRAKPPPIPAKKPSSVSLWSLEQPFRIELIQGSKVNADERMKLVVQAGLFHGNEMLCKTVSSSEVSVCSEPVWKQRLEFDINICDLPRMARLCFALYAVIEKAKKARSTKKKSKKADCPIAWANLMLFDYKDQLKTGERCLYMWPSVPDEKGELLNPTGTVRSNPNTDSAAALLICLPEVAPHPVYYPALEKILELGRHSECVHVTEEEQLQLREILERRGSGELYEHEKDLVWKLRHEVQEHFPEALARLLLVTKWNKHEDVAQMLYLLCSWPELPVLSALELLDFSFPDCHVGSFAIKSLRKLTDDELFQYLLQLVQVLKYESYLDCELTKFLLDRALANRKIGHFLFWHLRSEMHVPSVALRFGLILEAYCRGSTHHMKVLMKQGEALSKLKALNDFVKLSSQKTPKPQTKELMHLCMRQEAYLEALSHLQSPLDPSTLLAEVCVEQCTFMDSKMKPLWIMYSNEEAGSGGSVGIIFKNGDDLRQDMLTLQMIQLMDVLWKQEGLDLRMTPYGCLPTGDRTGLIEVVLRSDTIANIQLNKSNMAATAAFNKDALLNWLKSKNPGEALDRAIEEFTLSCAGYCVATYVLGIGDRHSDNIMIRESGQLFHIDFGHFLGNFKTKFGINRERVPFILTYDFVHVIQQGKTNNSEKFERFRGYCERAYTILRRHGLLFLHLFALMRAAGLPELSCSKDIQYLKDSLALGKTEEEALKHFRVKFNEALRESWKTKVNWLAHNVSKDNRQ

[17] = biological target: Cyclin-dependent kinase 2 (Homo sapiens, UniProt P24941); assay: Inhibition of CDK2 (unknown origin)
[18] = biological target: Tyrosine-protein kinase SYK (Homo sapiens, UniProt P43405); assay: Inhibition of SYK (unknown origin)
[19] = biological target: Proto-oncogene tyrosine-protein kinase Src (Homo sapiens, UniProt P12931); assay: Inhibition of SRC (unknown origin)

Serine/threonine-protein kinase PLK1, sequence (P53350 whole entry, canonical isoform): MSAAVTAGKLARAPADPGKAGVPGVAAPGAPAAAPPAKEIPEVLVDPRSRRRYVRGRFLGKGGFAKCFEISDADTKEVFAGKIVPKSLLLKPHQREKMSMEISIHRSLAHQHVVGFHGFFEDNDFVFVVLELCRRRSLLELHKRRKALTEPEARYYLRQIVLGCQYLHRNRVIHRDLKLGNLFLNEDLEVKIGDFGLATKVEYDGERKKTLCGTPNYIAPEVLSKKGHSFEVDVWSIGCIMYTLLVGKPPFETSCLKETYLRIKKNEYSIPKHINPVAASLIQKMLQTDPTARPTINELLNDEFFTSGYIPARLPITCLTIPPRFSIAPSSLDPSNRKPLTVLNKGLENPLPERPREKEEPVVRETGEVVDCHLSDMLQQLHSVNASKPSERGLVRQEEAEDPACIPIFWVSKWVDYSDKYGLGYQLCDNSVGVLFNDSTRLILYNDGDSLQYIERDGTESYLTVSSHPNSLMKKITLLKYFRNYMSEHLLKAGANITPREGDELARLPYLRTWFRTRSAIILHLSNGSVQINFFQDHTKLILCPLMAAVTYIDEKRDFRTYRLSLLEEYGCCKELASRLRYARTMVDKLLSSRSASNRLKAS

| Structure (SMILES) | Ki [1] [µM] | Ki [2] [µM] | Ki [3] [µM] | Ki [4] [µM] | Ki [5] [nM] | Ki [6] [nM] | Ki [7] [µM] | Ki [8] [µM] | EC50 [9] [nM] | EC99 [9] [µM] | Ki [10] [µM] | Ki [11] [µM] | Ki [12] [µM] | IC50 [13] [nM] | Ki [14] [nM] | Ki [15] [nM] | Ki [16] [µM] | Ki [17] [µM] | Ki [18] [µM] | Ki [19] [µM] |
| --- | --- | --- | --- | --- | --- | --- | --- | --- | --- | --- | --- | --- | --- | --- | --- | --- | --- | --- | --- | --- |
| CNC(=O)[C@H]1C2CCC(CC2)[C@@H]1Nc1nc(-c2c[nH]c3ncc(F)cc23)ncc1F (mixture of isomers) | > 4 | > 4 | > 4 | > 4 | 1100 | 1400 | > 4 | > 4 | 35 | 0.31 | > 4 | > 4 | 0.23 | 14 | > 4000 | > 4000 | > 4 | > 4 | > 4 | 2.5 |
| Fc1cnc2[nH]cc(-c3ncc(F)c(N[C@H]4C5CCC(CC5)[C@@H]4c4nnn[nH]4)n3)c2c1 (mixture of isomers) | > 4 | > 4 | > 4 | > 4 | > 4000 | > 4000 | > 4 | > 4 | 38 | 0.18 | > 4 | > 4 | > 4 | 25 | 1800 | 2900 | > 4 | > 4 | > 4 | > 4 |
| CS(=O)(=O)[C@H]1C2CCC(CC2)[C@@H]1Nc1nc(-c2c[nH]c3ncc(F)cc23)ncc1F (mixture of isomers) | > 4 | > 4 | > 4 | 1.5 | 740 | 840 | 2.7 | > 4 | 2 | 2.2 | > 4 | 1.5 | 0.077 | 230 | > 4000 | 1200 | 3.3 | > 4 | > 4 | 3.1 |
| O=P(O)(O)CC[C@H]1C2CCC(CC2)[C@@H]1Nc1nc(-c2c[nH]c3ncc(F)cc23)ncc1F (mixture of isomers) | 0.32 | > 4 | > 4 | > 4 | 620 | > 4000 | 0.25 | > 4 | 330 | 2.1 | > 4 | > 4 | 0.12 | 200 | 850 | 400 | 3.1 | > 4 | > 4 | > 4 |
